Source: US20240147927A1, “METHODS OF HIGH PRODUCTION OF POLYPHENOLS FROM RED LETTUCES AND USES THEREOF” (SignalChem Plantech Corporation, priority 2021, published 2024)

Legend:
[1] = system: IL-6 production in PMA-differentiated THP1 macrophages; assay: IL-6 production in LPS treated PMA-differentiated THP1 macrophages (ELISA); type: cell-based, human; conditions: 1.23, 3.7, 11.11, 33.33 and 100 μg/mL, then LPS 48 h
Experimental: (§1) Methods: […] THP1 monocytes were differentiated to macrophages using phorbol 12-myristate 13-acetate (PMA, Sigma, P1585). The […] The culture supernatant was collected from each well and replaced with 100 μl of fresh 1% FBS medium. […] 50 μl of cultured supernatant was used for measuring TNF-α and IL6 concentration. TNF-α was measured using human TNF-α DuoSet ELISA kit (R&D systems, DY210-05) and IL6 was determined using human IL6 DuoSet ELISA kit (R&D systems, DY206-05) according to the manufacturer's instructions. […] THP1 monocytes were differentiated to macrophages as previously described. […] Untreated cells were used as the control. After incubation, cell cultures were then stimulated with LPS for an additional 48 h (total volume of 200 μL per well). The culture supernatant was collected from each well and replaced with 100 μL of fresh 1% FBS medium. […] 50 μl of cultured supernatant was used for measuring TNF-α and IL6 concentration. TNF-α was measured using human TNF-α DuoSet ELISA kit and IL6 was determined using human IL6 DuoSet ELISA kit according to the manufacturer's instructions.

[2] = system: TNF-α production in PMA-differentiated THP1 macrophages; assay: TNF-α production in LPS treated PMA-differentiated THP1 macrophages (ELISA); type: cell-based, human; conditions: 1.23, 3.7, 11.11, 33.33 and 100 μg/mL, then LPS 48 h
Experimental: as §1

[3] = system: nitric oxide (NO) production in PMA-differentiated THP1 macrophages; assay: Nitric oxide (NO) production in LPS treated PMA-differentiated THP1 macrophages; type: cell-based, human; conditions: pre-treatment 2 h, then LPS 48 h
Experimental: Methods: […] Total nitrite was measured using nitric oxide colorimetric assay kit (BioVision, […]-200) according to the manufacturer's instructions. […] Untreated cells were used as the control. After incubation, cell cultures were then stimulated with LPS for an additional 48 h (total volume of 200 μl per well). The culture supernatant was collected from each well and replaced with 100 μl of fresh 1% FBS medium. […] 42.5 μL of cultured supernatant was used for measuring nitrite concentration. Total nitrite was measured using nitric oxide colorimetric assay kit according to the manufacturer's instructions.

Jurkat cells = type: cell-based
THP1 cells = type: cell-based
MCF7 cells = type: cell-based

Row | Compound | effect on secretion of IL-6 [1] | effect on secretion of TNF-α [2] | NO, EC50 [3] | Jurkat, TC50 (Jurkat cells) | cytotoxicity towards THP1 cell-line (THP1 cells) | cytotoxicity towards MCF7 cell-line (MCF7 cells)
1 | O=C(/C=C/c1ccc(O)c(O)c1)O[C@@H]1C[C@](O)(C(=O)O)C[C@@H](O)[C@H]1O [Neochlorogenic acid, 3-O-caffeoylquinic acid] | minimal effects | minimal effects | 80.5 µg/mL | – | – | –
2 | OC[C@H]1O[C@@H](Oc2cc3c(O)cc(O)cc3[o+]c2-c2ccc(O)c(O)c2)[C@H](O)[C@@H](O)[C@H]1O [Cyanidin 3-galactoside, cyanidin 3-galactoside] | minimal effects | minimal effects | 98.4 µg/mL | 53.5 µg/mL | did not appear to be individually cytotoxic | did not appear to be individually cytotoxic
3 | O=C(C=Cc1ccc(O)c(O)c1)O[C@@H](C(=O)O)[C@@H](OC(=O)C=Cc1ccc(O)c(O)c1)C(=O)O [Chicoric acid, (2R,3R)-O-dicaffeoyltartaric acid] | minimal effects | minimal effects | 25.3 µg/mL | – | – | –
4 | O=C(/C=C/c1ccc(O)c(O)c1)O[C@H]1[C@H](O)C[C@](O)(C(=O)O)C[C@H]1O [4-CQA, 4-O-caffeoylquinic acid] | minimal effects | minimal effects | 71.9 µg/mL | 49.9 µg/mL | did not appear to be individually cytotoxic | did not appear to be individually cytotoxic
